Target: human APJ receptor (Homo sapiens (Human), UniProt P35414)
Assay: biochemical
Type: biochemical
Conditions: read-out: Activity hAPJ SPA EC50 IP
Experimental: The human APJ receptor was cloned by polymerase chain reaction and the gene encoding the receptor was subcloned in pFLAG-CMV™-3 expression vector (Sigma, Saint Louis, Mo. USA) in-house at Amgen. A GTPγS binding assay was performed on membranes prepared from CHO cells stably expressing human APJ receptor. The optimum experimental conditions for the concentrations of GDP, MgCl2, and NaCl in the assay buffer were initially determined. The assay was performed in assay buffer [20 mM HEPES, pH 7.5, 5 mM MgCl2, and 0.1% (w/v) BSA with 200 mM NaCl, 3 μM GDP] and membranes expressing human APJ receptor/well along with WGA PS beads. The reaction was initiated by addition of 0.2 nM [^35S]GTPγS (Perkin Elmer Life and Analytical Sciences, Waltham USA) in the absence or presence of various ligands and incubated at RT for 90 min. […] All the results presented are means of several independent experiments and analyzed by non-linear regression methods using commercially available program Prism (GraphPad, San Diego, Calif.) to obtain EC50 detailed in Table 58.

human APJ receptor, sequence (P35414 whole entry): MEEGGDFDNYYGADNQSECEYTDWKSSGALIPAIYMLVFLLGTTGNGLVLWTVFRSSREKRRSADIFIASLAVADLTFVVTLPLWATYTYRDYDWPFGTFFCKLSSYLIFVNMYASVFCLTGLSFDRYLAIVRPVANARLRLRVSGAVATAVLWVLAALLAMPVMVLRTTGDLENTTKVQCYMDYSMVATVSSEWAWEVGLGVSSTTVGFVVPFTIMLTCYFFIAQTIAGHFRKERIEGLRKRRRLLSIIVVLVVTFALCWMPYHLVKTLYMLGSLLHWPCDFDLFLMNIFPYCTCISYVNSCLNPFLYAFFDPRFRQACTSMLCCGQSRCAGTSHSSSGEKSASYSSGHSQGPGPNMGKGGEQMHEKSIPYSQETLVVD

Structure (SMILES)	EC50 [nM]
COc1cccc(-c2nnc(NS(=O)(=O)[C@@H](C)[C@H](OC)c3ncc(C)cn3)n2-c2c(OC)ccnc2OC)n1 (atropisomer, axis not shown) [Example 636.0, (1R,2S, P)-N-(4-(2,4-dimethoxypyridin-3-yl)-5-(6-methoxypyridin-2-yl)-4H-1,2,4-triazol-3-yl)-1-methoxy-1-(5-methylpyrimidin-2-yl)propane-2-sulfonamide and (1R,2S, M)-N-(4-(2,4-dimethoxypyridin-3-yl)-5-(6-methoxypyridin-2-yl)-4H-1,2,4-triazol-3-yl)-1-methoxy-1-(5-methylpyrimidin-2-yl)propane-2-sulfonamide]	0.4
COc1cccc(F)c1-n1c(NS(=O)(=O)[C@@H](C)[C@H](C)c2ncc(C)cn2)nnc1-c1cncc(C)c1 (atropisomer, axis not shown) [Example 688.0, (2S,3R, P)-N-(4-(2-fluoro-6-methoxyphenyl)-5-(5-methyl-3-pyridinyl)-4H-1,2,4-triazol-3-yl)-3-(5-methyl-2-pyrimidinyl)-2-butanesulfonamide 2,2,2-trifluoroacetate and (2S,3R, M)-N-(4-(2-fluoro-6-methoxyphenyl)-5-(5-methyl-3-pyridinyl)-4H-1,2,4-triazol-3-yl)-3-(5-methyl-2-pyrimidinyl)-2-butanesulfonamide 2,2,2-trifluoroacetate]	0.66
COc1cccc(-c2nnc(NS(=O)(=O)[C@@H](C)[C@H](OC)c3ncc(C)cn3)n2-c2cccnc2OC)n1 (atropisomer, axis not shown) [Example 741.0, (1R,2S)-1-methoxy-N-(5-(6-methoxypyridin-2-yl)-4-(2-methoxypyridin-3-yl)-4H-1,2,4-triazol-3-yl)-1-(5-methylpyrimidin-2-yl)propane-2-sulfonamide]	3.1
COc1ccccc1-n1c(NS(=O)(=O)[C@@H](C)[C@H](C)c2ncc(C)cn2)nnc1-c1cncc(C)c1 (atropisomer, axis not shown) [Example 797.0, (2S,3R, P)-N-(4-(2-methoxyphenyl)-5-(5-methyl-3-pyridinyl)-4H-1,2,4-triazol-3-yl)-3-(5-methyl-2-pyrimidinyl)-2-butanesulfonamide and (2S,3R, M)-N-(4-(2-methoxyphenyl)-5-(5-methyl-3-pyridinyl)-4H-1,2,4-triazol-3-yl)-3-(5-methyl-2-pyrimidinyl)-2-butanesulfonamide]	2.4
COc1cccc(-c2nnc(NS(=O)(=O)[C@@H](C)[C@H](OC)c3ncc(C)cn3)n2-c2cc(C)ccc2OC)n1 (atropisomer, axis not shown; (P)) [Example 40.0, (1R,2S,P)-1-methoxy-N-(4-(2-methoxy-5-methylphenyl)-5-(6-methoxypyridin-2-yl)-4H-1,2,4-triazol-3-yl)-1-(5-methylpyrimidin-2-yl)propane-2-sulfonamide and (1R,2S,M)-1-methoxy-N-(4-(2-methoxy-5-methylphenyl)-5-(6-methoxypyridin-2-yl)-4H-1,2,4-triazol-3-yl)-1-(5-methylpyrimidin-2-yl)propane-2-sulfonamide]	4.7
COc1cccc(-c2nnc(NS(=O)(=O)[C@@H](C)[C@H](OC)c3ncc(C)cn3)n2-c2ccccc2OC)n1 (atropisomer, axis not shown; (P)) [Example 52.0, (1R,2S,P)-1-methoxy-N-(4-(2-methoxyphenyl)-5-(6-methoxy-2-pyridinyl)-4H-1,2,4-triazol-3-yl)-1-(5-methyl-2-pyrimidinyl)-2-propanesulfonamide and (1R,2S,M)-1-methoxy-N-(4-(2-methoxyphenyl)-5-(6-methoxy-2-pyridinyl)-4H-1,2,4-triazol-3-yl)-1-(5-methyl-2-pyrimidinyl)-2-propanesulfonamide]	4.2
COc1cccc(-c2nnc(NS(=O)(=O)[C@@H](C)[C@H](OC)c3ncc(C)cn3)n2-c2cccc(Cl)c2C)n1 (atropisomer, axis not shown; (P)) [Example 55.0, (1R,2S,P)-N-(4-(3-chloro-2-methylphenyl)-5-(6-methoxy-2-pyridinyl)-4H-1,2,4-triazol-3-yl)-1-methoxy-1-(5-methyl-2-pyrimidinyl)-2-propanesulfonamide and (1R,2S,M)-N-(4-(3-chloro-2-methylphenyl)-5-(6-methoxy-2-pyridinyl)-4H-1,2,4-triazol-3-yl)-1-methoxy-1-(5-methyl-2-pyrimidinyl)-2-propanesulfonamide]	17
COc1cccc(-c2nnc(NS(=O)(=O)[C@@H](C)[C@H](OC)c3ncc(C)cn3)n2-c2ccccc2C)n1 (atropisomer, axis not shown; (P)) [Example 61.0, (1R,2S,P)-1-methoxy-N-(5-(6-methoxy-2-pyridinyl)-4-(2-methylphenyl)-4H-1,2,4-triazol-3-yl)-1-(5-methyl-2-pyrimidinyl)-2-propanesulfonamide and (1R,2S,M)-1-methoxy-N-(5-(6-methoxy-2-pyridinyl)-4-(2-methylphenyl)-4H-1,2,4-triazol-3-yl)-1-(5-methyl-2-pyrimidinyl)-2-propanesulfonamide]	6.5
COc1cccc(-c2nnc(NS(=O)(=O)[C@@H](C)[C@H](OC)c3ncc(C)cn3)n2-c2ccc(F)cc2Cl)n1 (atropisomer, axis not shown; (P)) [Example 67.0, (1R,2S,P)-N-(4-(2-chloro-4-fluorophenyl)-5-(6-methoxy-2-pyridinyl)-4H-1,2,4-triazol-3-yl)-1-methoxy-1-(5-methyl-2-pyrimidinyl)-2-propanesulfonamide and (1R,2S,M)-N-(4-(2-chloro-4-fluorophenyl)-5-(6-methoxy-2-pyridinyl)-4H-1,2,4-triazol-3-yl)-1-methoxy-1-(5-methyl-2-pyrimidinyl)-2-propanesulfonamide]	15
COc1cccc(-c2nnc(NS(=O)(=O)[C@@H](C)[C@H](OC)c3ncc(C)cn3)n2-c2ccccc2Cl)n1 (atropisomer, axis not shown; (P)) [Example 69.0, (1R,2S,P)-N-(4-(2-chlorophenyl)-5-(6-methoxy-2-pyridinyl)-4H-1,2,4-triazol-3-yl)-1-methoxy-1-(5-methyl-2-pyrimidinyl)-2-propanesulfonamide and (1R,2S,M)-N-(4-(2-chlorophenyl)-5-(6-methoxy-2-pyridinyl)-4H-1,2,4-triazol-3-yl)-1-methoxy-1-(5-methyl-2-pyrimidinyl)-2-propanesulfonamide]	2.1
COc1cccc(-c2nnc(NS(=O)(=O)[C@@H](C)[C@H](OC)c3ncc(C)cn3)n2-c2cccc(C)c2C)n1 (atropisomer, axis not shown; (P)) [Example 70.0, (1R,2S,P)-N-(4-(2,3-dimethylphenyl)-5-(6-methoxy-2-pyridinyl)-4H-1,2,4-triazol-3-yl)-1-methoxy-1-(5-methyl-2-pyrimidinyl)-2-propanesulfonamide and (1R,2S,M)-N-(4-(2,3-dimethylphenyl)-5-(6-methoxy-2-pyridinyl)-4H-1,2,4-triazol-3-yl)-1-methoxy-1-(5-methyl-2-pyrimidinyl)-2-propanesulfonamide]	2.6
COc1cccc(-c2nnc(NS(=O)(=O)[C@@H](C)[C@H](OC)c3ncc(C)cn3)n2-c2ccccc2C(F)(F)F)n1 (atropisomer, axis not shown; (P)) [Example 74.0, (1R,2S,P)-1-methoxy-N-(5-(6-methoxy-2-pyridinyl)-4-(2-(trifluoromethyl)phenyl)-4H-1,2,4-triazol-3-yl)-1-(5-methyl-2-pyrimidinyl)-2-propanesulfonamide and (1R,2S,M)-1-methoxy-N-(5-(6-methoxy-2-pyridinyl)-4-(2-(trifluoromethyl)phenyl)-4H-1,2,4-triazol-3-yl)-1-(5-methyl-2-pyrimidinyl)-2-propanesulfonamide]	2.5
COc1cccc(-c2nnc(NS(=O)(=O)[C@@H](C)[C@H](OC)c3ncc(C)cn3)n2-c2ccccc2F)n1 (atropisomer, axis not shown; (P)) [Example 76.0, (1R,2S,P)-N-(4-(2-fluorophenyl)-5-(6-methoxy-2-pyridinyl)-4H-1,2,4-triazol-3-yl)-1-methoxy-1-(5-methyl-2-pyrimidinyl)-2-propanesulfonamide and (1R,2S,M)-N-(4-(2-fluorophenyl)-5-(6-methoxy-2-pyridinyl)-4H-1,2,4-triazol-3-yl)-1-methoxy-1-(5-methyl-2-pyrimidinyl)-2-propanesulfonamide]	3
COc1cccc(-c2nnc(NS(=O)(=O)[C@H](C)Cc3ncc(F)cn3)n2-c2ccccc2OC)n1 (mixture of isomers) [Example 31.0, (2R)-1-(5-fluoropyrimidin-2-yl)-N-(4-(2-methoxyphenyl)-5-(6-methoxypyridin-2-yl)-4H-1,2,4-triazol-3-yl)propane-2-sulfonamide and (2S)-1-(5-fluoropyrimidin-2-yl)-N-(4-(2-methoxyphenyl)-5-(6-methoxypyridin-2-yl)-4H-1,2,4-triazol-3-yl)propane-2-sulfonamide]	2.4
COc1cccc(-c2nnc(NS(=O)(=O)[C@H](C)Cc3ncc(F)cn3)n2-c2c(C)noc2C)n1 (mixture of isomers) [Example 32.0, (2R)-N-(4-(3,5-dimethylisoxazol-4-yl)-5-(6-methoxypyridin-2-yl)-4H-1,2,4-triazol-3-yl)-1-(5-fluoropyrimidin-2-yl)propane-2-sulfonamide and (2S)-N-(4-(3,5-dimethylisoxazol-4-yl)-5-(6-methoxypyridin-2-yl)-4H-1,2,4-triazol-3-yl)-1-(5-fluoropyrimidin-2-yl)propane-2-sulfonamide]	140

From US10058550B2, “Methods of treating heart failure” (priority 2015, dated 2018)
